The nature of series [1]: Stability of dehydrogenases and FITC-NADH by fluorescence polarization over time. Type of series: physicochemical. The conditions noted are these: 1.5 nM FITC-NADH with EACPR, GAPDH or DHPR. As for the experimental part: The fluorescence polarization of solutions of 10 μM enoyl ACP reductase, 5.6 μM glyceraldehyde-3-phosphate dehydrogenase and 10 μM dihydrodipicolinate reductase with 1.5 nM FITC-NADH, was measured. The concentration of the dehydrogenase was such that the solution of dehydrogenase and FITC-NADH would give the polarization mP value of 70-80. The blank was a solution of protein in buffer. Fluorescence polarization measurements were taken for 2 hours at 5 minute intervals.

The target of series [2] is dihydrodipicolinate reductase (DHPR) (Escherichia coli, UniProt P04036). Put plainly: Fluorescence polarization binding of FITC-NADH titrated with dihydrodipicolinate reductase (FIG. 4). The conditions noted are these: 25 nM FITC-NADH, 20 mM Potassium Phosphate, pH 7.4, or 20 mM HEPES, pH 7.8, fit of mP vs Log(DHPR). As for the experimental part: This example illustrates the determination of the concentration of FITC-NADH that would provide the best signal to noise ratio for fluorescence polarization assay. FITC-NADH was dissolved in 10 mM TAPS buffer with 5% NaHCO3, pH=8. The final concentration of FITC-NADH was 150 μM. In later experiments 150 μM FITC-NADH was diluted to the desired concentration in 20 mM Potassium Phosphate buffer, pH=7.4. Fluorescence polarization was monitored using a Beacon 2000 Variable Temperature Fluorescence Polarization System (PanVera Corporation, Madison, Wis.) and an LJL Analyst HT 96-384 (Molecular Devices Corporation, Sunnyvale, Calif.). The concentration of FITC-NADH as fluorescent tracer was selected by measuring fluorescence polarization of varying concentrations of FITC-NADH in 10 mM Potassium Phosphate buffer, pH=7.4. The concentration range was 0.15 nM—15 nM. For the best signal to noise ratio regarding both the horizontal and vertical intensities that contribute to the fluorescence polarization value, a concentration of 25 nM was chosen for FITC-NADH in the majority of experiments.
This example illustrates the binding characteristics of FITC-NADH to various dehydrogenases. […] An individual blank of protein in buffer was measured for each point. […] FITC-NADH was added to the test tubes and the fluorescence polarization measurement was taken. […]
Background: In fluorescence polarisation assays a small probe gives low polarisation when free and higher when bound to something large.

The structures appear in SMILES notation.

Sequence of dihydrodipicolinate reductase (DHPR) (P04036 whole entry): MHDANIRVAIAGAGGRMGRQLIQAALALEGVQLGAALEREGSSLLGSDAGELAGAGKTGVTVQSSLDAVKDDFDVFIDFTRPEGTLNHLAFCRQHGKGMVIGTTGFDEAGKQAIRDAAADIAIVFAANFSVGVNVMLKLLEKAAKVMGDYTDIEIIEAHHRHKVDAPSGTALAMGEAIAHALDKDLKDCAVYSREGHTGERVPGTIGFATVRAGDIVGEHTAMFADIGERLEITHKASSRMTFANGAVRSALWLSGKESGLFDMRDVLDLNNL

`NC(=O)C1=CN(C2OC(COP(=O)(O)OP(=O)(O)OCC3OC(n4cnc5c(NCCNC(=S)Nc6ccc(-c7c8ccc(=O)cc-8oc8cc(O)ccc78)c(C(=O)O)c6)ncnc54)C(O)C3O)C(O)C2O)C=CC1` (centres unmarked) [FITC-NADH, fluorescein isothiocyano-N^6-(2-aminoethyl)-NADH]: the “time stable in fluorescence polarization assay” value in series [1] worked out at 100 min. Moreover, the Kd in series [2] was 1400 ± 100 nM.

Broadly, the Kd is the constant that tells how readily two partners part at equilibrium. Lower therefore signals a tighter complex.
